Experimental data reported in PMC6196238, “Novobiocin, a Newly Found TRPV1 Inhibitor, Attenuates the Expression of TRPV1 in Rat Intestine and Intestinal Epithelial Cell Line IEC-6” (Frontiers in Pharmacology, 2018).

Tested on: rat intestine (jejunum, ileum, colon)
Test: Ussing chamber intestinal permeability of CAP
Type: in vitro ADME
Conditions: for fold-inhibition factor of CAP Papp: vs CAP only
Procedure: NOVO was also prepared in HEPES buffer to yield final concentration at 5, 10, 25, 50, 100, and 200 μM. […] Different portions of the rat intestine were excised and flushed with HEPES buffer, including jejunum (after the first 5 cm of the top of small intestine), ileum (the distal part of small intestine) and colon (proximal to cecal-colonic junction), and incubated in the ice-cold HEPES buffer. Next, 3–4 cm of the intestine was clipped, and the serosa was removed rapidly on an ice-cold glass. The intestinal segments were fixed in the Ussing chamber. Finally, 7 mL of HEPES buffer was added to the receiving side while an equal volume of drug solution to the dosing side. […] All the samples were kept at -20°C till HPLC analysis.
In brief, samples were injected into a C18 column (3.5 μm, 2.1 mm × 100 mm). An aliquot of 20 μL of sample solutions were injected.

## CO[C@@H]1[C@@H](OC(N)=O)[C@@H](O)[C@H](Oc2ccc3c(O)c(NC(=O)c4ccc(O)c(CC=C(C)C)c4)c(=O)oc3c2C)OC1(C)C [NOVO, novobiocin]
NOVO concentration higher than 100 μM, data not shown
  permeability of CAP in the Ussing chamber experiment: increased
colon, CAP + 5 μM inhibitor
  Papp of CAP: 8.28 ± 2.55 ×10^-6, cm⋅s^-1
  fold-inhibition factor of CAP Papp: 2.41 fold
colon, CAP + 10 μM inhibitor
  Papp of CAP: 6.05 ± 1.85 ×10^-6, cm⋅s^-1
  fold-inhibition factor of CAP Papp: 3.30 fold
colon, CAP + 25 μM inhibitor
  Papp of CAP: 5.65 ± 2.04 ×10^-6, cm⋅s^-1
  fold-inhibition factor of CAP Papp: 3.54 fold
colon, CAP + 50 μM inhibitor
  Papp of CAP: 9.79 ± 2.20 ×10^-6, cm⋅s^-1
  fold-inhibition factor of CAP Papp: 2.04 fold
ileum, CAP + 5 μM inhibitor
  Papp of CAP: 3.40 ± 0.76 ×10^-6, cm⋅s^-1
  fold-inhibition factor of CAP Papp: 2.17 fold
ileum, CAP + 10 μM inhibitor
  Papp of CAP: 2.17 ± 0.58 ×10^-6, cm⋅s^-1
  fold-inhibition factor of CAP Papp: 3.40 fold
ileum, CAP + 25 μM inhibitor
  Papp of CAP: 4.02 ± 0.42 ×10^-6, cm⋅s^-1
  fold-inhibition factor of CAP Papp: 1.83 fold
ileum, CAP + 50 μM inhibitor
  Papp of CAP: 5.23 ± 0.25 ×10^-6, cm⋅s^-1
  fold-inhibition factor of CAP Papp: 1.41 fold
jejunum, CAP + 5 μM inhibitor
  Papp of CAP: 1.96 ± 0.25 ×10^-6, cm⋅s^-1
  fold-inhibition factor of CAP Papp: 1.60 fold
jejunum, CAP + 10 μM inhibitor
  Papp of CAP: 1.36 ± 0.47 ×10^-6, cm⋅s^-1
  fold-inhibition factor of CAP Papp: 2.31 fold
jejunum, CAP + 25 μM inhibitor
  Papp of CAP: 1.60 ± 0.38 ×10^-6, cm⋅s^-1
  fold-inhibition factor of CAP Papp: 1.97 fold
jejunum, CAP + 50 μM inhibitor
  Papp of CAP: 2.11 ± 0.04 ×10^-6, cm⋅s^-1
  fold-inhibition factor of CAP Papp: 1.49 fold
